melting point [°C] | Compound
131 to 132 | C#CCNC(=C[N+](=O)[O-])SC
169 to 171 | O=C1NCCN1c1ccc(C(F)(F)F)cc1
43.2 to 46.8 | CCCCC(=NO)C(=O)OCC
52 to 55 | CCCCCCCCCCCCCCCCCC(=O)NCCOC(=O)CCc1cc(C(C)(C)C)c(O)c(C(C)(C)C)c1
196 to 198 | COc1cc(OC)nc(C2(C#N)OC(=O)c3c(-c4ccccc4)ccnc32)n1 (stereo unspecified)
272 to 273 | CN(C)C(=O)c1nc(-c2cnccn2)nc2c1c1ccc(Cl)cc1n2C
216 | CC(=O)N1CCc2cc(S(=O)(=O)n3c(CCC(=O)O)cc4nc(Cl)ccc43)ccc21
139 | COc1cc(Nc2nccc(Nc3ccc(OCC(=O)OC(C)(C)C)cc3)n2)cc(OC)c1OC
226 to 228 | Nc1nc(N)c2cc(Oc3ccc(Cl)cc3)ccc2n1
172 to 173 | CCC(CC)N(O)C(=O)Nc1ccc(Cc2ccc(NC(=O)N(O)C(CC)CC)c(Cl)c2)cc1Cl
110 | CC(C)(C)OC(=O)[C@@H]1CS[C@H](c2ccccc2F)N1C(=O)CNC(=O)Nc1cccc(CC(=O)O)c1
103 | CCCCCCCNC(=O)N(C)c1cccc(-c2ccc(C=C(OCC)C(=O)O)cc2OCCCC)c1
238 | O=C(N[C@@H](Cc1ccc(-c2c(O)cccc2O)cc1)C(=O)O)c1c(Cl)cccc1Cl
267 to 268 | Cc1nnc(-c2ccc3occ(-c4ccc(C(=O)O)cc4Cl)c3c2)o1
138 to 139 | CCCCCC(=O)O[C@H]1C[C@H](O)C=C2C=C[C@H](C)[C@H](CC[C@@H]3C[C@@H](O)CC(=O)O3)[C@H]21
187 to 188 | N#CCCNC(=O)c1cccc(-c2cccc3nn(Cc4cccc(C(F)(F)F)c4)cc23)c1
252 | Clc1cccc(CNc2ncnc3nc[nH]c23)c1
152 to 155 | COC1CCC(C2=C(O)C(=O)c3ccccc3C2=O)CC1 (stereo unspecified)
226 to 229 | Cc1cc(C)n(-c2nc(Nc3ccc(I)cc3)c3ccccc3n2)n1
223 to 225 | CCn1c(=O)n(O)c(=O)c2c(F)c(F)c(N3CCCC3)c(F)c21
340 to 343 | Cc1[nH]c(C)c(-c2ccc(Oc3ccc(Cl)cc3)cc2)c(=O)c1Cl
203 to 206 | CCNc1cccnc1N1CCN(Cc2cc(C)c(O)c(C)c2)CC1
183 | Cn1cnnc1C(O)(c1ccc(Cl)cc1)c1cc2c3c(c1)c(-c1cccc(Cl)c1)cc(=O)n3CCC2 (stereo unspecified)

melting point [°C] | Compound
196 to 198 | CC(C)Oc1ccccc1C1(OC(=O)N2CCN(c3ccncc3)CC2)C(=O)Nc2ccc(Cl)cc21 (stereo unspecified)
114 | NCC(=O)N[C@@H]1CN2C(=O)N(c3cc(Cl)nc(Cl)c3)C(=O)[C@@]2(Cc2ccc(OC(F)(F)F)cc2)C1
300 to 305 | COc1ccc(OC)c2c(O)c(C#N)cnc12
244 to 246 | CCCC(=O)NCc1cccc2c1CN(C1CCC(=O)NC1=O)C2=O (stereo unspecified)
55.4 to 56.9 | COc1ccc(-c2nn(CC=Cc3ccc(F)cc3F)c(=O)cc2-c2ccncc2)cc1
156 to 158 | O=C(c1ccccc1)c1ccc(N2CCCC2=O)cc1
226 | CSc1nc(O)c(-c2ccc(C)cc2)c(O)n1
113 to 115 | O=C(O)CCCCCNS(=O)(=O)c1ccccc1
225 | O=C(O)c1cc(Cl)nn2nnnc12
178 to 183 | CCC(=O)NNC(=O)NCCOc1ccccc1
75 | C=Cc1cc(Br)c(O)c(Br)c1
196 to 198 | O=C1C2=C(CCCC2)C(=O)N1c1cccc(O)c1
82 to 88 | CC(=Cc1ccc(C(C)(C)C)cc1)C[N+]1([O-])CCCCC1
186 to 188 | COc1ccc(-c2ocnc2-c2cc(OC)c([N+](=O)[O-])c(OC)c2)cc1O
144 to 145 | COC1(c2csc(S(=O)(=O)c3ccc4c(c3)CC/C4=N\O)c2)CCOCC1
187 to 189 | CCCCNC(=O)c1cn2nc(N3CCN(C(=O)c4ccccc4C(F)(F)F)CC3)ccc2n1
230 to 232 | Cc1cc(C)c2c(c1)CC2=NNC(N)=S
273 to 277 | N#CC(C(=O)Nc1ccccc1)C(=O)c1nn(-c2ccccc2)c2c1Cc1ccccc1-2 (stereo unspecified)
172 to 174 | COc1nc2ncccc2c2nc(S(=O)(=O)Cl)nn12
216 to 217 | CC1=CN2CCS(=O)(=O)N=C2C(c2ccc(OC3CCCCC3)cc2)=N1
72 to 73 | FC(F)(F)c1nnc(S)s1
174 to 176 | CCOC(=O)C(=O)CC(=O)c1cn(Cc2ccc(Cl)cc2)c2ccccc2c1=O
79 to 80 | CCOC(=O)Cc1nc(-c2ccccc2)oc1-c1ccco1

melting point [°C] | Compound
99 to 105 | COc1cc(CC(=O)O)ccc1CNC(=O)C1Cc2ccccc2N1S(=O)(=O)c1ccc(-c2cccc(C(F)(F)F)c2)cc1 (stereo unspecified)
63 to 65 | CCCCCCCCCCOc1ccc(OCc2ccccc2)c(C(=O)O)c1
205 to 226 | O=C(OC[C@@H]1CC(c2ccc(-c3ccc(N4C[C@H](Cn5ccnn5)OC4=O)cc3F)cn2)=NO1)c1cnccn1
89 | CC(=O)OCCCN1CCC(CNC(=O)[C@@H]2CCCN2S(=O)(=O)c2ccc(Cl)c(COc3cccc4c(-n5cccn5)cc(C)nc34)c2Cl)CC1
49 to 50 | CSc1nc(C)c(Cl)c(Cl)n1
161 to 162 | O=C(NCCN1CCC(Oc2ccc(Cl)c(Cl)c2)CC1)c1nnc(Nc2ccccc2Cl)o1
113 to 116 | Cc1nn(-c2cc(N)c(Cl)cc2F)c(Cl)c1Br
242 to 243 | COc1cc2c(cc1OC)C(=O)C(=Cc1cc(C)c([N+](=O)[O-])c(C)c1)C2
150 | CC(C)(C)OC(=O)[C@@H]1CS[C@H](c2cccc(O)c2)N1C(=O)CNC(=O)Nc1cccc(C(=O)O)c1
88 to 90 | CC(C)C(C(=O)O)c1ccc(OC(F)F)c([N+](=O)[O-])c1 (stereo unspecified)
135 to 136 | C=CCN(CC=C)c1nc(NC(=O)COC)n2oc(=O)nc2n1
100 | CCOC(=O)c1ccccc1NCC(=O)N(C)c1ccccc1
192 to 194 | O=C(Nc1ccc(C(O)(C(F)(F)F)C(F)(F)F)cc1)Oc1ccccc1
66 to 68 | COc1cccc2c1CC(C#N)CC2 (stereo unspecified)
101 to 103 | CC(CCl)OC(=O)Nc1ccc([N+](=O)[O-])cc1Cl (stereo unspecified)
108 to 109 | CC(C)(C)c1noc(NS(=O)(=O)c2ccccc2)c1Br
221 to 223 | COc1cc(-c2ccc(O)c(C3(C)CCCCC3)c2)cc(CC2SC(N3CCOCC3)=NC2=O)c1O (stereo unspecified)
155 to 157 | COC(=O)c1c(C)c([N+](=O)[O-])cc2nc(Cl)c(Cl)nc12
45 | O=S(=O)(CC=Cc1ccccc1)CCCOC1CCCCO1 (stereo unspecified)
100 to 105 | COc1c(C(C)=O)cnc2c([N+](=O)[O-])cccc12
229 to 230 | COc1cccc(CNC(=O)c2nc3scc(COCc4ccc(C(=O)O)cc4)c3c(=O)[nH]2)c1
40 to 41 | COC(COc1ccc(Br)c(C)c1C)OC

Compound | melting point [°C]
CCOP(=S)(OCC)Oc1nsc(C)c1C(N)=O | 68
CC(C)(C)NCC(O)c1cccc(C#N)c1F (stereo unspecified) | 88 to 90
CN1C(=O)C(C)(C)N=C(c2ccccc2F)c2cc(N)ccc21 | 190 to 191

— a melting point compilation (Tetko et al.; mined from patent text by program, amines drawn as free bases though some values may be those of a salt)
